In ChEMBL document CHEMBL1201862, “PubChem BioAssay data set” (2004):
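Test compounds were applied to cells in 96-well plates for 48 hours at 5 doses. GI50 is the concentration that inhibits growth by half.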 Calls of active or inactive are those of the source. Cut-off read from the data, not from the text of the source: active = GI50 up to about 1.1 µM and inactive = higher.

Assays:
Experiment in all cases: growth of human tumour cells (NCI), 48 h
SNB-78 = tested on: SNB-78
NCI-H23 = tested on: NCI-H23
LXFL 529 = tested on: LXFL 529
U-251 = tested on: U-251
T47D = tested on: T47D
ACHN = tested on: ACHN
BT-549 = tested on: BT-549
NCI-H522 = tested on: NCI-H522
SR = tested on: SR
LOX IMVI = tested on: LOX IMVI
786-0 = tested on: 786-0
RPMI-8226 = tested on: RPMI-8226
NCI/ADR-RES = tested on: NCI/ADR-RES
M19-MEL = tested on: M19-MEL
OVCAR-4 = tested on: OVCAR-4
UACC-62 = tested on: UACC-62
SW-620 = tested on: SW-620
MDA-N = tested on: MDA-N
K562 = tested on: K562
HOP-62 = tested on: HOP-62

Measured: GI50

COc1cc2nncc(SCc3ccc(Cl)c(Cl)c3)c2cc1OC
inactive: SNB-78 40.7 µM | NCI-H23 > 100 µM | LXFL 529 17.7 µM | U-251 50.5 µM | T47D 34 µM | ACHN > 48.4 µM | BT-549 > 100 µM | NCI-H522 23.2 µM | SR > 100 µM | LOX IMVI 26.2 µM | 786-0 42.8 µM | RPMI-8226 > 100 µM | NCI/ADR-RES > 100 µM | M19-MEL > 100 µM | OVCAR-4 > 49.9 µM | UACC-62 14 µM | SW-620 > 100 µM | MDA-N > 100 µM | K562 > 94.8 µM | HOP-62 32.3 µM

O=C1C(c2ccc([N+](=O)[O-])cc2)=C(Cl)C(=O)c2c(O)cccc21
inactive: SNB-78 25.5 µM | NCI-H23 18.1 µM | LXFL 529 9.51 µM | U-251 17.9 µM | T47D 20.9 µM | ACHN 18.5 µM | BT-549 17.1 µM | NCI-H522 7.87 µM | SR > 100 µM | LOX IMVI 17.3 µM | 786-0 15.5 µM | RPMI-8226 41.3 µM | NCI/ADR-RES 28.4 µM | M19-MEL 18.2 µM | OVCAR-4 17.3 µM | UACC-62 19.7 µM | SW-620 4.18 µM | MDA-N 20.2 µM | K562 11.4 µM | HOP-62 34.4 µM

O=C(CCN(C(=O)O)S(=O)(=O)c1ccc(NC(=O)c2ccccc2)cc1)NC1CCCCC1
inactive: SNB-78 > 100 µM | NCI-H23 > 100 µM | LXFL 529 > 100 µM | U-251 36.3 µM | ACHN > 100 µM | NCI-H522 > 100 µM | SR 17.8 µM | LOX IMVI > 100 µM | 786-0 12.6 µM | RPMI-8226 16.5 µM | M19-MEL 59.7 µM | OVCAR-4 > 100 µM | UACC-62 > 100 µM | SW-620 16.3 µM | K562 27.4 µM | HOP-62 > 100 µM

CC1=CC(C)(C)N=C2SC(c3ccc(N)cc3)=NN12
inactive: SNB-78 > 100 µM | NCI-H23 > 81.1 µM | LXFL 529 31.6 µM | U-251 59.8 µM | ACHN 69.3 µM | NCI-H522 58.6 µM | SR 46.9 µM | LOX IMVI > 58.5 µM | 786-0 57.1 µM | RPMI-8226 21.1 µM | M19-MEL 63.1 µM | OVCAR-4 > 93.8 µM | UACC-62 44.6 µM | SW-620 > 41 µM | K562 32.6 µM | HOP-62 > 100 µM
